Measurements as given in PubChem BioAssay (NCI).
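Grown in 96-well plates, cells were treated for 48 hours with each compound at five concentrations. Insufficient inhibition: endpoint recorded as highest concentration tested. GI50 = concentration required for 50% inhibition of growth. TGI is the concentration that stops growth completely.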

What was measured:
Assay in all cases: NCI anticancer screen, dose series, 48 h
HOP-62 NSCLC = system: HOP-62 NSCLC
RPMI-8226 leukemia = system: RPMI-8226 leukemia
MALME-3M melanoma = system: MALME-3M melanoma
NCI-H522 lung = system: NCI-H522 lung
IGROV1 ovarian = system: IGROV1 ovarian
EKVX NSCLC = system: EKVX NSCLC
K-562 leukemia = system: K-562 leukemia
BT-549 breast = system: BT-549 breast
NCI/ADR-RES ovarian = system: NCI/ADR-RES ovarian
PC-3 prostate = system: PC-3 prostate

Row | SMILES | TGI (HOP-62 NSCLC) | TGI (RPMI-8226 leukemia) | TGI (MALME-3M melanoma) | TGI (NCI-H522 lung) | TGI (IGROV1 ovarian) | TGI (EKVX NSCLC) | TGI (K-562 leukemia) | GI50 (IGROV1 ovarian) | GI50 (HOP-62 NSCLC) | GI50 (RPMI-8226 leukemia) | GI50 (K-562 leukemia) | GI50 (MALME-3M melanoma) | GI50 (BT-549 breast) | TGI (BT-549 breast) | GI50 (NCI-H522 lung) | GI50 (NCI/ADR-RES ovarian) | TGI (NCI/ADR-RES ovarian) | GI50 (EKVX NSCLC) | GI50 (PC-3 prostate) | TGI (PC-3 prostate)
1 | Nc1ncnc2c1ncn2C1(CO)OC(CO)C(O)C1O (stereo not drawn) | > 100 µM | > 100 µM | > 100 µM | > 100 µM |  |  |  |  |  |  |  |  |  |  |  |  |  |  |  | 
2 | Cc1ccccc1-c1cc(=O)c2cc(C)c(C)c(C(=O)O)c2o1 | > 100 µM | > 100 µM | > 100 µM | > 100 µM | > 100 µM | > 100 µM | > 100 µM |  |  |  |  |  |  |  |  |  |  |  |  | 
3 | COC(=O)C(C(=O)C(=O)Nc1nc2ccc(OC)cc2s1)c1cnc2ccccc2n1 (stereo not drawn) | > 100 µM | > 100 µM | > 100 µM | > 100 µM | > 100 µM | > 100 µM | > 100 µM |  |  |  |  |  |  |  |  |  |  |  |  | 
4 | CCCCCCCCCCCCNCCCc1ccccc1 | 3.7 µM | 4.41 µM | 3.64 µM | 3.03 µM | 3.49 µM |  | 4.54 µM | 1.93 µM | 2.07 µM | 2.09 µM | 1.89 µM | 1.97 µM | 1.75 µM | 3.19 µM | 1.62 µM | 1.77 µM | 3.5 µM |  |  | 
5 | Cc1nc2sc(C(=O)Nc3cccc4c3OCCO4)c(N)c2cc1C(C)O (stereo not drawn) | > 100 µM | > 100 µM |  | > 100 µM | > 100 µM | > 100 µM | > 100 µM | 4.84 µM | 5.35 µM | 4.16 µM | 1.37 µM |  |  |  | 2.5 µM | 3.28 µM | > 100 µM | > 100 µM | 5 µM | > 100 µM
6 | Nc1ccccc1SC(CC(=O)c1ccccc1)c1c(Cl)cccc1Cl (stereo not drawn) | 27.7 µM | 5.35 µM | 25.3 µM | 12.6 µM | 8.62 µM |  | 7.69 µM | 2.74 µM | 6.82 µM | 1.9 µM | 2.76 µM | 10.8 µM | 3.46 µM | 13.3 µM | 3.86 µM | 3.72 µM | 28.5 µM |  |  | 
7 | O=S(=O)(c1ccccc1)C1(C2(S(=O)(=O)c3ccccc3)CCN=N2)CCN=N1 (stereo not drawn) |  | > 100 µM | > 100 µM | > 100 µM | > 100 µM | > 100 µM | > 100 µM |  |  |  |  |  |  |  |  |  |  |  |  | 
8 | COc1ccc(/C(=N/O)c2cc(F)c(F)c(OC)c2F)cc1O | > 100 µM | 23.7 µM |  | 3.3 µM | > 100 µM | > 100 µM | > 100 µM | 0.815 µM | 0.502 µM | 0.43 µM | 0.271 µM |  |  |  | 0.259 µM | 0.309 µM | 19.1 µM | 0.714 µM | 0.565 µM | > 100 µM
9 | O=C(N/N=C/c1coc2ccc(Cl)cc2c1=O)c1cc(O)c(O)c(O)c1 | 89.4 µM | > 100 µM |  | > 100 µM | > 100 µM | > 100 µM | 55.6 µM | 44.5 µM | 38.8 µM | 28.5 µM | 15.2 µM |  | 23.3 µM | 96.6 µM | 38.4 µM | 17.8 µM | 50.2 µM | 27.1 µM | 33.2 µM | > 100 µM
10 | C=CCN=C1NC(=O)C(CC(=O)Nc2ccc([N+](=O)[O-])cc2[N+](=O)[O-])S1 (stereo not drawn) | > 100 µM |  | > 100 µM | > 100 µM | > 100 µM | > 100 µM |  |  |  |  |  |  |  |  |  |  |  |  |  | 
11 | COc1ccc(C)cc1-c1ccc(-c2cc(C)ccc2OC)o1 | > 100 µM | > 100 µM | > 100 µM | > 100 µM | > 100 µM | > 100 µM | > 100 µM |  |  |  |  |  |  |  |  |  |  |  |  | 
12 | O=[N+]([O-])c1cc2c(ccc3ccccc32)o1 | 4.92 µM | 6.81 µM | 0.368 µM | 2.18 µM | 5.56 µM |  | 9.01 µM | 0.703 µM | 1.31 µM | 1.13 µM | 0.376 µM | 0.175 µM |  |  | 0.563 µM | 0.635 µM | 5.96 µM |  | 1.85 µM | 14.5 µM
13 | CCCOC(=O)C1C(c2ccc(OC)cc2)NC(c2ccc(OC)cc2)C(C(=O)OCCC)S1(=O)=O (stereo not drawn) | > 100 µM | > 100 µM | > 100 µM | > 100 µM | > 100 µM | > 100 µM | > 100 µM | > 100 µM | > 100 µM | > 100 µM | > 100 µM | > 100 µM |  |  | > 100 µM |  |  | > 100 µM |  | 
14 | CC1(C)CCOC(Sc2ccccc2)C1 (stereo not drawn) | > 100 µM | 91.3 µM |  | > 100 µM | > 100 µM | > 100 µM | > 100 µM |  |  |  |  |  |  |  |  |  |  |  |  | 
15 | O=C1c2ccccc2C(=O)N1CCN(CCN1C(=O)c2ccccc2C1=O)Cc1ccccc1 | > 100 µM | > 100 µM |  | > 100 µM |  | > 100 µM | > 100 µM |  |  |  |  |  |  |  |  |  |  |  |  | 
16 | O=C1CC2=CCCC2O1 (stereo not drawn) | > 100 µM | > 100 µM | > 100 µM | > 100 µM | > 100 µM | > 100 µM | > 100 µM |  |  |  |  |  |  |  |  |  |  |  |  | 
17 | O=C1C=C(c2ccccc2)NC1(c1ccccc1)c1cc(-c2ccccc2)[nH]c1-c1ccccc1 (stereo not drawn) | 19 µM |  |  |  | > 100 µM | > 100 µM | > 100 µM |  |  |  |  |  |  |  |  |  |  |  |  | 
18 | Cc1ccc(-c2csc3ncnc(Nc4cccc(O)c4)c23)cc1 | 49.6 µM | 37 µM |  | 62.1 µM | 57.5 µM | 98 µM | > 100 µM | 17.8 µM | 21.8 µM | 14.5 µM | 5.6 µM |  | 37 µM | 98.2 µM | 18.5 µM | 24.7 µM | 60.3 µM | 37.8 µM | 16.3 µM | 37.1 µM
19 | COC(=O)N1C=CC2=C(C)C3Nc4ccccc4C3C(C)=C2C1 (stereo not drawn) | 12.6 µM | 5.87 µM | 13.1 µM | 10.7 µM | > 100 µM | > 100 µM | 14.5 µM |  |  |  |  |  |  |  |  |  |  |  |  | 
20 | O=C1OC(=O)c2c1cc1cc3c(cc1c2-c1ccc2c(c1)OCO2)OCO3 |  | > 100 µM | > 100 µM | > 100 µM | > 100 µM |  | > 100 µM |  |  |  |  |  |  | > 100 µM |  |  | > 100 µM |  |  | > 100 µM
